Measurements as given in ChEMBL document CHEMBL4351021, “Design, synthesis and biological evaluation of novel FFA1/GPR40 agonists: New breakthrough in an old scaffold” (Eur J Med Chem, 2019).
One block for each molecule: values may come before it. Activity calls are given as the source filed them. The rule behind the calls is not given here.

What was measured:
[1] = molecular target: T1, Free fatty acid receptor 1 (Homo sapiens, UniProt O14842); experiment: Agonist activity at FFA1 receptor (unknown origin) stably expressed in CHO cells assessed as increase in calcium flux by Fluo4-AM based FLIPR assay; type: functional, cell-based
T1 sequence (O14842 whole entry): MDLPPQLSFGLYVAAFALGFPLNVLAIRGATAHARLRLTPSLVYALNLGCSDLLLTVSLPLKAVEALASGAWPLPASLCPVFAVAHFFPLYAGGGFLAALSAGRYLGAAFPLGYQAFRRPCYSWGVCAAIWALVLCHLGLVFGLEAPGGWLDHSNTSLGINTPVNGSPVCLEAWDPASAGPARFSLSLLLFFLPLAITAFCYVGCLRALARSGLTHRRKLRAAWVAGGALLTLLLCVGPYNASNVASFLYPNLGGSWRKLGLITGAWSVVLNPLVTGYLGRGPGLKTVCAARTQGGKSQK

[2] = Lipophilicity, logD of compound in 1-octanol and PBS mixture in pH 7.4 at 100 uM incubated for 24 under shaking condition by HPLC analysis; type: physicochemical; conditions: 1-octanol/PBS
Rattus norvegicus [3] = experiment: Antidiabetic activity in Sprague-Dawley rat assessed as change in blood glucose level in fasting state at 10 mg/kg, po pretreated for 1 hr followed by glucose challenge and measured up to 120 mins by OGTT; type: functional, organism-based
Mus musculus [4] = experiment: Antidiabetic activity in ICR mouse assessed as reduction in blood glucose level at 20 mg/kg, po pretreated for 30 mins followed by glucose challenge and measured up to 120 mins by OGTT; type: functional, organism-based
Mus musculus [5] = experiment: Antidiabetic activity in ICR mouse assessed as flattening of glucose curve after 1 hr at 20 mg/kg, po pretreated for 30 mins followed by glucose challenge and measured up to 120 mins by OGTT; type: functional, organism-based
Hepatocyte [6] = experiment: Hepatotoxicity in sandwich-cultured Sprague-Dawley rat hepatocytes assessed as inhibition of hepatobiliary transport by measuring biliary excretion index at 25 uM incubated for 15 mins followed by d8-TCA addition and measured after 15 mins by LC-MS/MS analysis; type: toxicity, cell-based; conditions: 0.25 h
[7] = Clearance in Sprague-Dawley rat at 10 mg/kg, po measured for […] by LC-MS/MS analysis; type: ADME, organism-based; conditions: in vivo
[8] = Cmax in Sprague-Dawley rat at 10 mg/kg, po measured for […] by LC-MS/MS analysis; type: ADME, organism-based; design: dose 10 mg/kg, route oral; conditions: in vivo
[9] = AUC (0 to 24 hrs) in Sprague-Dawley rat at 10 mg/kg, po measured for […] by LC-MS/MS analysis; type: ADME, organism-based; design: time < 24 hr, dose 10 mg/kg, route oral; conditions: in vivo; for AUC: 24 h
[10] = Half life in Sprague-Dawley rat at 10 mg/kg, po measured for […] by LC-MS/MS analysis; type: ADME, organism-based; conditions: in vivo
Hepatocyte [11] = experiment: Hepatotoxicity in sandwich-cultured Sprague-Dawley rat hepatocytes assessed as decrease in accumulation of d8-TCA at 25 uM incubated for 15 mins followed by d8-TCA addition and measured after 15 mins by LC-MS/MS analysis; type: toxicity, cell-based; conditions: 0.25 h
Rattus norvegicus [12] = experiment: Antidiabetic activity in Sprague-Dawley rat assessed as suppression in blood glucose excursion at 10 mg/kg, po pretreated for 1 hr followed by glucose challenge and measured up to 120 mins by OGTT; type: functional, organism-based
Rattus norvegicus [13] = experiment: Antidiabetic activity in Sprague-Dawley rat assessed as increase in plasma insulin level at 10 mg/kg, po administrated and measured up to 120 mins by ELISA; type: functional, organism-based
Mus musculus [14] = experiment: Antidiabetic activity in ICR mouse assessed as glucose-stimulated change in GLP-1 secretion at 20 mg/kg, po pretreated for 0.5 hrs followed by glucose challenge and measured after 5 mins by ELISA; type: functional, organism-based
Mus musculus [15] = experiment: Antidiabetic activity in ICR mouse assessed as increase in GLP-1 secretion at 20 mg/kg, po pretreated with DPP4 inhibitor linagliptin for 1 hr followed by compound addition and measured after 4 hrs by ELISA; type: functional, organism-based
Mus musculus [16] = experiment: Antidiabetic activity in HFD fed/STZ-treated C57BL/6 mouse assessed as decrease in blood glucose at 20 mg/kg, po pretreated for 30 mins followed by glucose challenge and measured after up to 120 mins by OGTT; type: functional, organism-based
[17] = Acute toxicity in ICR mouse assessed as change in ALT level up to 500 mg/kg, po daily for 7 days; type: organism-based; conditions: in vivo, 168 h
[18] = Acute toxicity in ICR mouse assessed as change in AST level up to 500 mg/kg, po daily for 7 days; type: organism-based; conditions: in vivo, 168 h
[19] = Acute toxicity in ICR mouse assessed as change in liver morphology at 5 to 500 mg/kg, po daily for 7 days by H and E staining based histopathological analysis; type: organism-based; conditions: in vivo, 168 h
[20] = Acute toxicity in ICR mouse assessed as induction of side effects at 5 to 500 mg/kg, po daily for 7 days; type: organism-based; conditions: in vivo, 168 h
Rattus norvegicus [21] = experiment: Antidiabetic activity in Sprague-Dawley rat assessed as increase in plasma insulin level at 10 mg/kg, po pretreated for 1 hr followed by glucose challenge and measured at 0 mins by ELISA; type: functional, organism-based
Rattus norvegicus [22] = experiment: Antidiabetic activity in Sprague-Dawley rat assessed as change in blood glucose level at 10 mg/kg, po pretreated for 1 hr followed by glucose challenge by OGTT; type: functional, organism-based; conditions: TDE = time-dependent effect
Rattus norvegicus [23] = experiment: Antidiabetic activity in Sprague-Dawley rat assessed as change plasma in insulin level at 10 mg/kg, po pretreated for 1 hr followed by glucose challenge by ELISA; type: functional, organism-based; conditions: TDE = time-dependent effect
[24] = molecular target: T1, Free fatty acid receptor 1; experiment: Potency index, ratio of EC50 for 2-(4-(([…]3-yl)methoxy)-2-fluorophenoxy)acetic acid to EC50 for test compound for Agonist activity at FFA1 receptor (unknown origin) stably expressed in CHO cells assessed as increase in calcium flux by Fluo4-AM based FLIPR assay; type: functional, cell-based

- EC50 [1]: 69.3 nM
- logD at 100 µM [2]: 3.61
Compound: CCOc1cc(C)c(-c2cccc(COc3ccc(OCC(=O)O)c(F)c3)c2)c(C)c1

- EC50 [1]: 398 nM
Compound: CO/N=C(\COc1ccc(CNc2ccc(OCC(=O)O)c(F)c2)cc1)c1ccccc1

Compound: COc1ccc(Cl)cc1C(=O)NCCc1ccc(S(=O)(=O)NC(=O)NC2CCCCC2)cc1
- Activity (Rattus norvegicus [3]): Active

- EC50 [1]: 58.5 nM
- logD at 100 µM [2]: 2.25
Compound: O=C(O)COc1ccc(NCc2cccc(-c3ccccc3)c2)cc1F

- EC50 [1]: 19.3 nM
- logD at 100 µM [2]: 2.71
Compound: O=C(O)COc1ccc(NCc2cccc(-c3ccccc3Cl)c2)cc1F
- Activity (Mus musculus [4]): Active

- EC50 [1]: 38.7 nM
- logD at 100 µM [2]: 3.59
Compound: CCCOc1cc(C)c(-c2cccc(CNc3ccc(OCC(=O)O)c(F)c3)c2)c(C)c1

- EC50 [1]: > 1000 nM
Compound: CCOc1cc(C)c(-c2cccc(COc3ccc(NCC(=O)O)c(F)c3)c2)c(C)c1

- logD at 100 µM [2]: 2.41
- CL/F ([7]; Sprague-Dawley): 0.109 mL/min/kg
- Cmax [8]: 187 µg/mL
- AUC(0-t) at 24 h ([9]; Sprague-Dawley): 2870 µg·h/mL
- half-life [10]: 5.42 h
Compound: Cc1ccccc1-c1cccc(CNc2ccc(OCC(=O)O)c(F)c2)c1
- Activity (Mus musculus [5]): Active
- Activity (Mus musculus [4]): Active
- Activity_index (Hepatocyte [6]): 12.3%
- Activity (Hepatocyte [11]): Toxic

- EC50 [1]: 69.6 nM
- logD at 100 µM [2]: 1.85
Compound: Cc1cc(O)ccc1-c1cccc(CNc2ccc(OCC(=O)O)c(F)c2)c1

Compound: O=C(O)COc1ccc(NCc2cccc(-c3ccccc3C(F)(F)F)c2)cc1F
- EC50 [1]: 15.7 nM
- logD at 100 µM [2]: 3.13
- Activity (Mus musculus [4]): Active
- Activity_index (Hepatocyte [6]): 29.6%
- CL [7]: 0.124 mL/min/kg
- Cmax [8]: 322 µg/mL
- AUC [9]: 3909.33 µg·h/mL
- half-life [10]: 4.84 h
- Activity (Rattus norvegicus [12]): Active
- Activity (Rattus norvegicus [13]): inactive
- Activity (Rattus norvegicus [3]): inactive
- Activity (Mus musculus [14]): inactive
- Activity (Mus musculus [15]): Active
- Activity (Mus musculus [16]): Active
- Activity [17]: Non-Toxic
- Activity [18]: Non-Toxic
- Activity [19]: Non-Toxic
- Activity [20]: Non-Toxic
- Activity (Hepatocyte [11]): Toxic
- Activity (Rattus norvegicus [21]): Active
- Activity (Rattus norvegicus [22]): Tde
- Activity (Rattus norvegicus [23]): Tde

- EC50 [1]: 536 nM
Compound: COc1ccccc1-c1cccc(CNc2ccc(OCC(=O)O)c(F)c2)c1

- EC50 [1]: 41.9 nM
- logD at 100 µM [2]: 2.23
Compound: COCCOc1ccc(-c2cccc(CNc3ccc(OCC(=O)O)c(F)c3)c2)c(C)c1

- EC50 [1]: 36.5 nM
- logD at 100 µM [2]: 2.36
Compound: O=C(O)COc1ccc(NCc2cccc(-c3ccccc3F)c2)cc1F

- EC50 [1]: 225 nM
Compound: Cc1noc(C)c1-c1cccc(CNc2ccc(OCC(=O)O)c(F)c2)c1

- EC50 [1]: 11.6 nM
- logD at 100 µM [2]: 2.83
Compound: CCOc1ccc(-c2cccc(CNc3ccc(OCC(=O)O)c(F)c3)c2)c(C)c1
- Activity (Mus musculus [4]): Active
- Activity_index (Hepatocyte [6]): 19.3%
- Activity (Hepatocyte [11]): Toxic

- EC50 [1]: 59.8 nM
- logD at 100 µM [2]: 1.73
Compound: Cc1cc(OCCCS(C)(=O)=O)cc(C)c1-c1cccc(CNc2ccc(OCC(=O)O)c(F)c2)c1

- EC50 [1]: 36.1 nM
- logD at 100 µM [2]: 1.65
Compound: Cc1cc(OCCO)ccc1-c1cccc(CNc2ccc(OCC(=O)O)c(F)c2)c1
- Activity_index (Hepatocyte [6]): 14.3%
- Activity (Hepatocyte [11]): Toxic

- EC50 [1]: 41.3 nM
- logD at 100 µM [2]: 3.37
Compound: CCCOc1ccc(-c2cccc(CNc3ccc(OCC(=O)O)c(F)c3)c2)c(C)c1

- EC50 [1]: 22.5 nM
- logD at 100 µM [2]: 3.24
Compound: Cc1ccc(-c2cccc(CNc3ccc(OCC(=O)O)c(F)c3)c2)c(Cl)c1

- EC50 [1]: 51.7 nM
- logD at 100 µM [2]: 2.74
Compound: O=C(O)COc1ccc(NCc2ccc(Cl)c(-c3ccccc3)c2)cc1F

- CL [7]: 0.4177 mL/min/kg
- Cmax [8]: 87.4 µg/mL
- AUC [9]: 1064.23 µg·h/mL
- half-life [10]: 4.32 h
Compound: Cc1cc(OCCCS(C)(=O)=O)cc(C)c1-c1cccc(COc2ccc3c(c2)OC[C@H]3CC(=O)O)c1
- Activity (Mus musculus [4]): Active
- Activity (Mus musculus [14]): inactive
- Activity (Mus musculus [15]): inactive
- Activity (Mus musculus [16]): Active
- Activity (Hepatocyte [11]): Toxic

- EC50 [1]: 45.6 nM
- logD at 100 µM [2]: 1.59
Compound: Cc1cc(OCCCS(C)(=O)=O)ccc1-c1cccc(CNc2ccc(OCC(=O)O)c(F)c2)c1

- EC50 [1]: 24.2 nM
- logD at 100 µM [2]: 3.04
- Ratio EC50 [24]: 3
Compound: CCOc1cc(C)c(-c2cccc(CNc3ccc(OCC(=O)O)c(F)c3)c2)c(C)c1
- Activity (Mus musculus [4]): Active

- EC50 [1]: 729 nM
Compound: N#Cc1ccccc1-c1cccc(CNc2ccc(OCC(=O)O)c(F)c2)c1

- EC50 [1]: 51.6 nM
- logD at 100 µM [2]: 2.47
Compound: COCCOc1cc(C)c(-c2cccc(CNc3ccc(OCC(=O)O)c(F)c3)c2)c(C)c1

- EC50 [1]: 197 nM
Compound: CCOc1cc(C)c(-c2cccc(CNc3ccc(OCC(=O)O)cc3)c2)c(C)c1

- EC50 [1]: 86.2 nM
- logD at 100 µM [2]: 3.45
Compound: CC(C)c1ccccc1-c1cccc(CNc2ccc(OCC(=O)O)c(F)c2)c1
